# Reference: patent US10471046B2, “Method for treating, preventing, or reducing the risk of skin infection” (Melinta Subsidiary Corp., priority 2014, dated 2019)
# Test system: S. aureus
# Experiment: Minimum inhibitory concentrations (MICs) for S. aureus of exemplary compounds (Table 2)
# Assay type: cell-based
# Settings: Staphylococcus aureus, minimum inhibitory concentrations for S. aureus; read-out: MICs
# Method in brief: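 MICs (μg/mL) against S. aureus come from microtiter-tray dilution susceptibility testing per NCCLS M7-A5, comparing growth with and without compound.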
row,Structure (SMILES),MIC [µg/mL]
1,"CC(=O)NC[C@H]1CN(c2ccc(-c3ccc(CNCc4n[nH]c(=O)[nH]4)cc3)c(F)c2)C(=O)O1 [Compound 4178, N-[3-(2-Fluoro-4′-{[(5-(S)-oxo-4,5-dihydro-1H-[1,2,4]triazol-3-ylmethyl)-amino]-methyl}-biphenyl-4-yl)-2-oxo-oxazolidin-5-(S)-ylmethyl]-acetamide]",8
2,"CC(=O)NC[C@H]1CN(c2ccc(-c3ccc(CSc4ncn[nH]4)cc3)c(F)c2)C(=O)O1 [Compound 2047, N-{3-[2-Fluoro-4′-(2H-[1,2,4]triazol-3-ylsulfanylmethyl)-biphenyl-4-yl]-2-oxo-oxazolidin-5-(S)-ylmethyl}-acetamide]",0.25
3,"CC(=O)NC[C@H]1CN(c2ccc(-c3ccc(C(N)c4nn[nH]n4)cc3)c(F)c2)C(=O)O1 (mixture of isomers) [Compound 1040, N-(3-{4′-[Amino-(2H-tetrazol-5-(R/S)-yl)-methyl]-2-fluoro-biphenyl-4-yl}-2-oxo-oxazolidin-5-(S)-ylmethyl)-acetamide]",128
4,"CC(=O)NC[C@H]1CN(c2ccc(-c3ccc(CN(CCCF)OCc4ccccc4)cc3)c(F)c2)C(=O)O1 [Compound 4265, N-[3-(4′-{[Benzyloxy-(3-fluoro-propyl)-amino]-methyl}-2-fluoro-biphenyl-4-yl)-2-oxo-oxazolidin-5-(S)-ylmethyl]-acetamide]",4
5,"CC(=O)NC[C@H]1CN(c2ccc(-c3ccc(CNCc4cccc5cnccc45)cc3)c(F)c2)C(=O)O1 [Compound 4065, N-[3-(2-Fluoro-4′-{[(isoquinolin-5-ylmethyl)-amino]-methyl}-biphenyl-4-yl)-2-oxo-oxazolidin-5-(S)-ylmethyl]-acetamide]",2
6,"CC(=O)NC[C@H]1CN(c2ccc(-c3ccc(CNC(=O)/C=C/c4cn(C)c(=O)n(C)c4=O)cc3)c(F)c2)C(=O)O1 [Compound 4005, N-{4′-[5-(S)-(Acetylamino-methyl)-2-oxo-oxazolidin-3-yl]-2′-fluoro-biphenyl-4-ylmethyl}-3-(1,3-dimethyl-2,4-dioxo-1,2,3,4-tetrahydro-pyrimidin-5-yl)-acrylamide]",2
7,"CC(=O)NC[C@H]1CN(c2ccc(-c3ccc(CNCc4nnnn4C)cc3)c(F)c2)C(=O)O1 [Compound 4283, N-[3-(2-Fluoro-4′-{[(1-methyl-1H-tetrazol-5-ylmethyl)-amino]-methyl}-biphenyl-4-yl)-2-oxo-oxazolidin-5-(S)-ylmethyl]-acetamide]",0.25
8,"CC(=O)NC[C@H]1CN(c2ccc(-c3ccc([S+]([O-])Cc4ccncc4)cc3)c(F)c2)C(=O)O1 (stereo partly drawn) [Compound 3002, N-{3-[2-Fluoro-4′-(pyridin-4-ylmethanesulfinyl)-biphenyl-4-yl]-2-oxo-oxazolidin-5-(S)-ylmethyl}-acetamide]",1
9,"CC(=O)NC[C@H]1CN(c2ccc(-c3ccc(CNCc4c(C)[nH]c(=O)[nH]c4=O)cc3)c(F)c2)C(=O)O1 [Compound 4057, N-[3-(2-Fluoro-4′-{[(6-methyl-2,4-dioxo-1,2,3,4-tetrahydro-pyrimidin-5-ylmethyl)-amino]-methyl}-biphenyl-4-yl)-2-oxo-oxazolidin-5-(S)-ylmethyl]-acetamide]",16
10,"CC(=O)NC[C@H]1CN(c2ccc(-c3ccc(CNCC4CCNCC4)cc3)c(F)c2)C(=O)O1 [Compound 4186, N-[3-(2-Fluoro-4′-{[(piperidin-4-ylmethyl)-amino]-methyl}-biphenyl-4-yl)-2-oxo-oxazolidin-5-(S)-ylmethyl]-acetamide]",64
11,"CC(=O)NC[C@H]1CN(c2ccc(-c3ccc(Cn4nnnc4C)cc3)c(F)c2)C(=O)O1 [Compound 1058, N-{3-[2-Fluoro-4′-(5-methyl-tetrazol-1-ylmethyl)-biphenyl-4-yl]-2-oxo-oxazolidin-5-(S)-ylmethyl}-acetamide]",0.5
12,"CC(=O)NC[C@H]1CN(c2ccc(-c3ccc(CNC(=O)[C@@H]4C=CCN4C(=O)OC(C)(C)C)cc3)c(F)c2)C(=O)O1 [Compound 4305, 2-({4′-[5-(S)-(Acetylamino-methyl)-2-oxo-oxazolidin-3-yl]-2′-fluoro-biphenyl-4-ylmethyl}-carbamoyl)-2,5-dihydro-pyrrole-1-(S)-carboxylic acid tert-butylester]",16
13,"CC(=O)NC[C@H]1CN(c2ccc(-c3ccc(CNCC4CCNC4)cc3)c(F)c2)C(=O)O1 (mixture of isomers) [Compound 4153, N-[3-(2-Fluoro-4′-{[(pyrrolidin-3-(R/S)-ylmethyl)-amino]-methyl}-biphenyl-4-yl)-2-oxo-oxazolidin-5-(S)-ylmethyl]-acetamide]",4
14,"CC(=O)NC[C@H]1CN(c2ccc(-c3ccc([C@H](CO)NCc4c(C)nc(O)nc4O)cc3)c(F)c2)C(=O)O1 [Compound 4030, N-[3-(4′-{1-(R)-[(2,4-Dihydroxy-6-methyl-pyrimidin-5-ylmethyl)-amino]-2-hydroxy-ethyl}-2-fluoro-biphenyl-4-yl)-2-oxo-oxazolidin-5-(S)-ylmethyl]-acetamide]",64
15,"CC(=O)NC[C@H]1CN(c2ccc(-c3ccc(Cn4cncn4)nc3)c(F)c2)C(=O)O1 [Compound 1072, N-{3-[3-Fluoro-4-(6-[1,2,4]triazol-1-ylmethyl-pyridin-3-yl)-phenyl]-2-oxo-oxazolidin-5-(S)-ylmethyl}-acetamide]",1
16,"CC(=O)NC[C@H]1CN(c2ccc(-c3ccc(CNCc4ccc([N+](=O)[O-])o4)cc3)c(F)c2)C(=O)O1 [Compound 4069, N-[3-(2-Fluoro-4′-{[(5-nitro-furan-2-ylmethyl)-amino]-methyl}-biphenyl-4-yl)-2-oxo-oxazolidin-5-(S)-ylmethyl]-acetamide]",1
17,"CC(=O)NC[C@H]1CN(c2ccc(-c3ccc(Cn4cnc5c(NCCCCO)ncnc54)cc3)c(F)c2)C(=O)O1 [Compound 1109, N-(3-{2-Fluoro-4′-[6-(4-hydroxy-butylamino)-purin-9-ylmethyl]-biphenyl-4-yl}-2-oxo-oxazolidin-5-(S)-ylmethyl)-acetamide]",2
18,"CC(=O)NC[C@H]1CN(c2ccc(-c3ccc(CNC(=O)[C@@H]4CCCN4)cc3)c(F)c2)C(=O)O1 [Compound 4309, Pyrrolidine-2-(S)-carboxylic acid {4′-[5-(S)-(acetylamino-methyl)-2-oxo-oxazolidin-3-yl]-2′-fluoro-biphenyl-4-ylmethyl}-amide]",8
19,"CC(=O)NC[C@H]1CN(c2ccc(-c3ccc(CNCc4ccco4)cc3)c(F)c2)C(=O)O1 [Compound 4026, N-[3-(2-Fluoro-4′-{[(furan-2-ylmethyl)-amino]-methyl}-biphenyl-4-yl)-2-oxo-oxazolidin-5-(S)-ylmethyl]-acetamide]",1
20,"CC(=O)NC[C@H]1CN(c2ccc(-c3ccc(CNC(=O)[C@H](Cc4ccccn4)NC(=O)OC(C)(C)C)cc3)c(F)c2)C(=O)O1 [Compound 4303, [1-(S)-({4′-[5-(S)-(Acetylamino-methyl)-2-oxo-oxazolidin-3-yl]-2′-fluoro-biphenyl-4-ylmethyl}-carbamoyl)-2-pyridin-2-yl-ethyl]-carbamic acid tert-butyl ester]",8
21,"CC(=O)NC[C@H]1CN(c2ccc(-c3ccc(CN4CC[S+]([O-])CC4)cc3)c(F)c2)C(=O)O1 [Compound 1065, N-{3-[2-Fluoro-4′-(1-oxo-1 lambda*4*-thiomorpholin-4-ylmethyl)-biphenyl-4-yl]-2-oxo-oxazolidin-5-(S)-ylmethyl}-acetamide]",2
22,"CC(=O)NC[C@H]1CN(c2ccc(-c3ccc(C(=O)NCCc4scnc4C)cc3)c(F)c2)C(=O)O1 [Compound 4112, 4′-[5-(S)-(Acetylamino-methyl)-2-oxo-oxazolidin-3-yl]-2′-fluoro-biphenyl-4-carboxylic acid [2-(4-methyl-thiazol-5-yl)-ethyl]-amide]",0.25
23,"CC(=O)NC[C@H]1CN(c2ccc(-c3ccc(C(=O)NCc4ccccn4)nc3)c(F)c2)C(=O)O1 [Compound 4187, 5-{4-[5-(S)-(Acetylamino-methyl)-2-oxo-oxazolidin-3-yl]-2-fluoro-phenyl}-pyridine-2-carboxylic acid (pyridin-2-ylmethyl)-amide]",1
24,"CC(=O)NC[C@H]1CN(c2ccc(-c3ccc(CNc4nc(CN)ns4)cc3)c(F)c2)C(=O)O1 [Compound 2012, N-(3-{4′-[(3-Aminomethyl-[1,2,4]thiadiazol-5-ylamino)-methyl]-2-fluoro-biphenyl-4-yl}-2-oxo-oxazolidin-5-(S)-ylmethyl)-acetamide]",1
25,"CC(=O)NC[C@H]1CC(c2ccc(-c3ccc(CNCc4ccncc4)cc3)cc2)=NO1 [Compound 4132, N-[3-(4′-{[(Pyridin-4-ylmethyl)-amino]-methyl}-biphenyl-4-yl)-4,5-dihydro-isoxazol-5-(R)-ylmethyl]-acetamide]",4
26,"CC(=O)NC[C@H]1CN(c2ccc(-c3ccc(CNCc4cnn[nH]4)cc3)c(F)c2)C(=O)O1 [Compound 4267, N-[3-(2-Fluoro-4′-{[(3H-[1,2,3]triazol-4-ylmethyl)-amino]-methyl}-biphenyl-4-yl)-2-oxo-oxazolidin-5-(S)-ylmethyl]-acetamide]",0.25
27,"CC(=O)NC[C@H]1CN(c2ccc(-c3ccc(CNCCN4CCOCC4)cc3)c(F)c2)C(=O)O1 [Compound 4318, N-(3-{2-Fluoro-4′-[(2-morpholin-4-yl-ethylamino)-methyl]-biphenyl-4-yl}-2-oxo-oxazolidin-5-(S)-ylmethyl)-acetamide]",16
28,"CC(=O)NC[C@H]1CN(c2ccc(-c3ccc(CNCc4noc(C)n4)cc3)c(F)c2)C(=O)O1 [Compound 4141, N-[3-(2-Fluoro-4′-{[(5-methyl-[1,2,4]oxadiazol-3-ylmethyl)-amino]-methyl}-biphenyl-4-yl)-2-oxo-oxazolidin-5-(S)-ylmethyl]-acetamide]",2
29,"COc1cc(CN(C)Cc2ccncc2)ccc1-c1ccc(N2C[C@H](CNC(C)=O)OC2=O)cc1F [Compound 4033, N-(3-{2-Fluoro-2′-methoxy-4′-[(methyl-pyridm-4-ylmethyl-amino)-methyl]-biphenyl-4-yl}-2-oxo-oxazolidin-5-(S)-ylmethyl)-acetamide]",8
